Calls of active or inactive are those of the source.
How the values were obtained:
[1] = molecular target: T1, Zinc finger protein mex-5 (Caenorhabditis elegans, UniProt Q9XUB2); assay: potency of MEX-5 RNA-binding blockers – biochemical, C. elegans, fluorescence polarization, dose response (AID 1960)
T1 sequence (Q9XUB2 whole entry): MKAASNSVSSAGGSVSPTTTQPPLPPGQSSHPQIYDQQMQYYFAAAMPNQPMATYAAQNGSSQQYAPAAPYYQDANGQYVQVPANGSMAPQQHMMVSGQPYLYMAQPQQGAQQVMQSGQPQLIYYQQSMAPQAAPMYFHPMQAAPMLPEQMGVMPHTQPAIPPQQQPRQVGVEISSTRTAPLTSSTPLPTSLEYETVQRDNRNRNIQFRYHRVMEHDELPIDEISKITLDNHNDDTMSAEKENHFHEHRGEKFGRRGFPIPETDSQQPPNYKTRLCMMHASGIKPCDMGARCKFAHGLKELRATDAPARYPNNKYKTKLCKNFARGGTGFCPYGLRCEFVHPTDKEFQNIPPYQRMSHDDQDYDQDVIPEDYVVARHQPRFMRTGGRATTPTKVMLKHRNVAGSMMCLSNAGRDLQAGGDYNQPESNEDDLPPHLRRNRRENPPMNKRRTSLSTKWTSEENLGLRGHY

[2] = molecular target: T2, RNA-binding protein pos-1 (Caenorhabditis elegans, UniProt G5EF15); assay: disruptors of C. elegans POS-1 RNA interaction – biochemical, fluorescence polarization, dose response (AID 1964);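 further: purified POS-1 fused to maltose binding protein made in E. coli; potency of compounds blocking POS-1 binding to fluorescent RNA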
T2 sequence (G5EF15 whole entry): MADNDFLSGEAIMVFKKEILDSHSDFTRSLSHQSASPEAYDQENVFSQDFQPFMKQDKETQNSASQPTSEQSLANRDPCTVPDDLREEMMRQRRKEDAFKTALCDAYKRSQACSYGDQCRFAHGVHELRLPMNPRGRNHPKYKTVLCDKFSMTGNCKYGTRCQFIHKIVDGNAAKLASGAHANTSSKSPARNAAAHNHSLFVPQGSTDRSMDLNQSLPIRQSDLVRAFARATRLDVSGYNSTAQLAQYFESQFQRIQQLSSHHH

ORF 73 = molecular target: T3, ORF 73 (Human herpesvirus 8, UniProt O40947); assay: KSHV LANA DNA-binding disruption – biochemical, fluorescence polarization, cherry-picked samples, dose response (AID 504725); set-up: species or system Human gammaherpesvirus 8;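 further: fluorescence polarization of a labeled DNA duplex reporting LANA DNA binding; potency is for inhibitors that block LANA binding to the DNA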
T3 sequence (O40947 whole entry): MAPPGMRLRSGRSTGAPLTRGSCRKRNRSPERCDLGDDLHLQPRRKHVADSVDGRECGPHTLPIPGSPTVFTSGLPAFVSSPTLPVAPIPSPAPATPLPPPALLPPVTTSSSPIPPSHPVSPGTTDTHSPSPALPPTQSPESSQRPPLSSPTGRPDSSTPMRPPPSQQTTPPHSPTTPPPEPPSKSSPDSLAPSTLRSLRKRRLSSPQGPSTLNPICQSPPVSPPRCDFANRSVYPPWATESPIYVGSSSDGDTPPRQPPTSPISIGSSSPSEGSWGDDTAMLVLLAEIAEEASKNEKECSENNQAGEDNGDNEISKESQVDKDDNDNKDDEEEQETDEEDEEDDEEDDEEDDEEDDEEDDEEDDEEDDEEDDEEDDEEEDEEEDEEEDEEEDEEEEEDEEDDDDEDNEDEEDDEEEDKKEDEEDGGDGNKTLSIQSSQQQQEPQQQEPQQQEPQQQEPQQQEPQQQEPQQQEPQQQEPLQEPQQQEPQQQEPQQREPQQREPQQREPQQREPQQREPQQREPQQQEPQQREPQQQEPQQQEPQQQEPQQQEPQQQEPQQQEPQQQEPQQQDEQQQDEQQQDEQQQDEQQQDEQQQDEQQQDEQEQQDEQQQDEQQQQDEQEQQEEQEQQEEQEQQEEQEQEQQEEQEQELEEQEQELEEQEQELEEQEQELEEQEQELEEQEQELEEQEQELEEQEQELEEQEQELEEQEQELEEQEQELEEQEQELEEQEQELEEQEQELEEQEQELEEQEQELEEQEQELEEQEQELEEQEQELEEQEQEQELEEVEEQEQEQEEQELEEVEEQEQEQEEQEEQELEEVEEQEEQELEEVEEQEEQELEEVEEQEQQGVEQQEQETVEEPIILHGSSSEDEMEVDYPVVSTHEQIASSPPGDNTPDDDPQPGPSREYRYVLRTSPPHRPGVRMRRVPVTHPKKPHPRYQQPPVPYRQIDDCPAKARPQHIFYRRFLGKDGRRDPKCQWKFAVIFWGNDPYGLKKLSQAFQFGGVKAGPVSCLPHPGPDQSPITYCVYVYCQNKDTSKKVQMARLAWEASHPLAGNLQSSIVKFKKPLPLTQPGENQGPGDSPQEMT

[3] = molecular target: T4, Rac GTPase-activating protein 1 (Homo sapiens, UniProt Q9H0H5); assay: blockers of MgcRacGAP-driven Rac1 GTP hydrolysis – biochemical, ADP Hunter fluorescence, primary and confirmatory, confirmation (AID 624330); format: functional
T4 sequence (Q9H0H5 whole entry): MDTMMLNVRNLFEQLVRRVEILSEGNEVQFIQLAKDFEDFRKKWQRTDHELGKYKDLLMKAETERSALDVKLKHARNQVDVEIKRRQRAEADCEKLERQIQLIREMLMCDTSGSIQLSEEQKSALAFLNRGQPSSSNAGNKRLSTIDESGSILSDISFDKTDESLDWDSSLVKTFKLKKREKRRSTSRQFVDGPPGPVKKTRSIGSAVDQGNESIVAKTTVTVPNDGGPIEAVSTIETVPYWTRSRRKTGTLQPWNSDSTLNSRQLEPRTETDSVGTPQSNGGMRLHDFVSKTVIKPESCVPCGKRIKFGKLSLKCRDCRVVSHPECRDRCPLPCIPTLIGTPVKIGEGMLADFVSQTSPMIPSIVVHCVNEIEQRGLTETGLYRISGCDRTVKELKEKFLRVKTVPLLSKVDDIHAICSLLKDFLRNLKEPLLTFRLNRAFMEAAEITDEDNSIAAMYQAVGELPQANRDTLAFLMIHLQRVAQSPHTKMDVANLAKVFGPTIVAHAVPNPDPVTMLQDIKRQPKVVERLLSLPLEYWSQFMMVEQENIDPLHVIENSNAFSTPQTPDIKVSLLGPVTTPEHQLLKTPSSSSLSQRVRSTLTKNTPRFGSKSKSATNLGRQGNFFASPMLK

Genome polyprotein = Genome polyprotein (dengue virus type 2, UniProt P29990); assay: flavivirus cap methylation enzyme inhibition – biochemical, confirmation dose response, primary screen (AID 588689); format: functional
[4] = alpha-synuclein stem-loop luciferase translation blockers – H4 neuroglioma cells, luminescence, confirmation (AID 1988); format: functional, cell-based
[5] = THP-1 cell cytotoxicity, dose response, cytotoxicity control for non-replicating M. tuberculosis project (AID 489025); format: functional
[6] = Luminescence Cell-Based Dose Response HTS to Identify Inhibitors of 5'UTR Stem-Loop Driven Prion Protein mRNA Translation in H4 Neuroglioblastoma Cells. [Related pubchem assays: 1827 (Project Summary), 1813 (Primary HTS)]; format: functional
Streptococcus = assay: GAS UMAA2166 growth inhibition – luminescence, BacTiterGlo, counter-screen for streptokinase expression inhibitor project, dose response (AID 1915); format: functional, organism-based;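 further: potency for reduction of bacterial viability or growth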
[7] = Vero E6 cell cytotoxicity, dose response, cytotoxicity control for non-replicating M. tuberculosis project, secondary assay (AID 492998); format: functional, VeroE6; conditions: Vero C1008
[8] = tested on: Streptococcus sp. 'group A'; assay: Streptococcus pyogenes SK(-)GAS viability under kanamycin – luminescence, BacTiterGlo, confirmation, counter-screen for streptokinase expression inhibitor project, dose response (AID 1900); format: functional, organism-based
[9] = molecular target: Heat shock protein HSP 90-alpha (Homo sapiens, UniProt P07900); format: functional, organism-based
cells = format: functional
[10] = HepG2 cell cytotoxicity, dose response, cytotoxicity control for non-replicating M. tuberculosis project (AID 489018); format: functional; conditions: Mycobacterium tuberculosis
[11] = luciferase reporter signal suppression in cells – H4 neuroglioma cells, luminescence, dose response (AID 1990); format: functional, cell-based
[12] = molecular target: T5, Microphthalmia-associated transcription factor (Homo sapiens, UniProt O75030); assay: reducers of TRPM1 reporter luminescence, concentration series – cell-based, SK-MEL-5, cherry-picked, set 3, MITF inhibitor project, dose response (AID 493073); format: functional;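 further: SK-MEL-5 melanoma cells with luciferase driven by the MITF target TRPM1 promoter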
T5 sequence (O75030 whole entry): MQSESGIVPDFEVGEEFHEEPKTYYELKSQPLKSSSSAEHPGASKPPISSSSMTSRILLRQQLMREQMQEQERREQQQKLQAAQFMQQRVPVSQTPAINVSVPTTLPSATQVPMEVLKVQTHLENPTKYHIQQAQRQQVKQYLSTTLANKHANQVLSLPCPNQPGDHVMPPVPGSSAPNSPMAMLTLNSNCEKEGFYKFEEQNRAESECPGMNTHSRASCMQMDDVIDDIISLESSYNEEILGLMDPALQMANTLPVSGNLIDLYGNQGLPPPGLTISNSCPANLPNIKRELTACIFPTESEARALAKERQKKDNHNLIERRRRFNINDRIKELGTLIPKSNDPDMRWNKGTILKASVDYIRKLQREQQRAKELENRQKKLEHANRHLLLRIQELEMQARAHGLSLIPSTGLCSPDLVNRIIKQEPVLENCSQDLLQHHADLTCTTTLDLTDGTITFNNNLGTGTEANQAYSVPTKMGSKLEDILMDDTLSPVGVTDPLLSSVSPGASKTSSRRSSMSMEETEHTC

[13] = molecular target: T6, Kappa-type opioid receptor (Homo sapiens, UniProt P41145); format: functional
[14] = molecular target: T6, Kappa-type opioid receptor; format: functional; remark: listed apart in the source
Beta-galactosidase = Beta-galactosidase (Escherichia coli, UniProt Q8VNN2); format: functional
Hexokinase = molecular target: T7, Hexokinase (Trypanosoma brucei, UniProt Q38C41); assay: Confirmation assay for inhibitors of Trypanosoma brucei hexokinase 1-Analogue-first series. [Related pubchem assays (depositor defined):AID1430, AID1632, AID2516, AID2560, AID2579, AID2600, AID449725, AID492951]; format: functional
T7 sequence (Q38C41 whole entry): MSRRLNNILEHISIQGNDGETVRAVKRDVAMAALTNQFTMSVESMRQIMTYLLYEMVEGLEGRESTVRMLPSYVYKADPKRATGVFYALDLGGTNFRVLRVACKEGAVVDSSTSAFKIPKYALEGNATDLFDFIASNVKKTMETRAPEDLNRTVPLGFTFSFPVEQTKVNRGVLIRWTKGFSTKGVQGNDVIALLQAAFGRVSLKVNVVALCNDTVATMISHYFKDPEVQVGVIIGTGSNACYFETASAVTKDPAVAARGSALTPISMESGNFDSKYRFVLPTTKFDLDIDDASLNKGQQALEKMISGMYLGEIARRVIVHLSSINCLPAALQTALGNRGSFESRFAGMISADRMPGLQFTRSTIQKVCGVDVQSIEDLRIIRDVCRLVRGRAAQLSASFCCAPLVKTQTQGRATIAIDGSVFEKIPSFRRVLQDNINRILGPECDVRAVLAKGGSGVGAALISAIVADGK

[15] = molecular target: Eukaryotic translation initiation factor 4H (Homo sapiens, UniProt Q15056); assay: inhibitors of translation initiation factor eIF4H – SAR follow-up (AID 435011); format: functional
[16] = molecular target: Polyadenylate-binding protein 1 (Homo sapiens, UniProt P11940); assay: PABP inhibition in translation initiation, SAR follow-up (AID 435018); format: functional
H9c2 = assay: cells; format: functional, cell-based; conditions: Rattus norvegicus, H9c2, Myocardium
Streptokinase A = molecular target: T8, Streptokinase A (Streptococcus pyogenes serotype M1, UniProt P10520); assay: viability-normalized secreted streptokinase activity reduction – plasminogen activation absorbance, OD405, dose response (AID 1914); format: functional, Streptococcus pyogenes M1 GAS;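 further: secreted streptokinase activity via plasminogen activation per viability signal from cell pellet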
T8 sequence (P10520 whole entry): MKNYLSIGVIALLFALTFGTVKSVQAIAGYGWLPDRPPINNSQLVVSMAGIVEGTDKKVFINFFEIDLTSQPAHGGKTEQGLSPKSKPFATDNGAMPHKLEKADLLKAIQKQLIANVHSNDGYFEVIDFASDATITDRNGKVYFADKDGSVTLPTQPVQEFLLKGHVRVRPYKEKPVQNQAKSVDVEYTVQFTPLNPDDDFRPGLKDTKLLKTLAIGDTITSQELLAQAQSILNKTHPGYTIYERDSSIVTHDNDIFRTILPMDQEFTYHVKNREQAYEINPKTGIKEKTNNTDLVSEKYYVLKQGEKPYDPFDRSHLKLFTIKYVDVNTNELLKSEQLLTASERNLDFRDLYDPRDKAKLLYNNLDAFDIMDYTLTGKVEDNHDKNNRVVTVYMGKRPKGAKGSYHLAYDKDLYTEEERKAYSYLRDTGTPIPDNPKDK

T6 sequence (P41145 whole entry): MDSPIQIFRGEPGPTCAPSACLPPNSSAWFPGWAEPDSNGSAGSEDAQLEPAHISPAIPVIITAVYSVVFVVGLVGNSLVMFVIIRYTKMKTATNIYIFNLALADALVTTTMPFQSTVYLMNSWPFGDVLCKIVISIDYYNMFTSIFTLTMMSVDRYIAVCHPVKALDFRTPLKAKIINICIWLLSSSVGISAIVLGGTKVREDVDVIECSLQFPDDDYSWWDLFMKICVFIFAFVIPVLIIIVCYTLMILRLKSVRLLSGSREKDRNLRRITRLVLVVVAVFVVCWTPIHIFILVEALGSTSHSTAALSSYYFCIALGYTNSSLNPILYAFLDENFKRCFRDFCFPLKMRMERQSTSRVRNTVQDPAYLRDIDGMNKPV
Sequence of Polyadenylate-binding protein 1 (P11940 whole entry): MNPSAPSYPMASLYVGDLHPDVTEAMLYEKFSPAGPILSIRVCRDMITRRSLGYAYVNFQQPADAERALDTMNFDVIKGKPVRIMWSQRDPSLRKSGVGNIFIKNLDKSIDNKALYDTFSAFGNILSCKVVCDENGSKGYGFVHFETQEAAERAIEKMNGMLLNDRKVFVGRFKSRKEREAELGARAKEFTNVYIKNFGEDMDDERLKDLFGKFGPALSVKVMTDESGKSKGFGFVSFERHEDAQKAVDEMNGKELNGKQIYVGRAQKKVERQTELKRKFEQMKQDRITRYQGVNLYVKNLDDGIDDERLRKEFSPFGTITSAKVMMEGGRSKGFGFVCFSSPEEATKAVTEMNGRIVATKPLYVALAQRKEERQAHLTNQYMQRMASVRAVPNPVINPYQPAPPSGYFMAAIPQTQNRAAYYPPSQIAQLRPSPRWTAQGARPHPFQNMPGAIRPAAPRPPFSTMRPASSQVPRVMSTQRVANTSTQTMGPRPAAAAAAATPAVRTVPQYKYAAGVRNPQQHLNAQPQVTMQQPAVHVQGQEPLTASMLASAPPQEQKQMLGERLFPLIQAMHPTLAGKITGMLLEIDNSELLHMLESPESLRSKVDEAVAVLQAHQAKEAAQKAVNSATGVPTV
Sequence of Beta-galactosidase (Q8VNN2 whole entry): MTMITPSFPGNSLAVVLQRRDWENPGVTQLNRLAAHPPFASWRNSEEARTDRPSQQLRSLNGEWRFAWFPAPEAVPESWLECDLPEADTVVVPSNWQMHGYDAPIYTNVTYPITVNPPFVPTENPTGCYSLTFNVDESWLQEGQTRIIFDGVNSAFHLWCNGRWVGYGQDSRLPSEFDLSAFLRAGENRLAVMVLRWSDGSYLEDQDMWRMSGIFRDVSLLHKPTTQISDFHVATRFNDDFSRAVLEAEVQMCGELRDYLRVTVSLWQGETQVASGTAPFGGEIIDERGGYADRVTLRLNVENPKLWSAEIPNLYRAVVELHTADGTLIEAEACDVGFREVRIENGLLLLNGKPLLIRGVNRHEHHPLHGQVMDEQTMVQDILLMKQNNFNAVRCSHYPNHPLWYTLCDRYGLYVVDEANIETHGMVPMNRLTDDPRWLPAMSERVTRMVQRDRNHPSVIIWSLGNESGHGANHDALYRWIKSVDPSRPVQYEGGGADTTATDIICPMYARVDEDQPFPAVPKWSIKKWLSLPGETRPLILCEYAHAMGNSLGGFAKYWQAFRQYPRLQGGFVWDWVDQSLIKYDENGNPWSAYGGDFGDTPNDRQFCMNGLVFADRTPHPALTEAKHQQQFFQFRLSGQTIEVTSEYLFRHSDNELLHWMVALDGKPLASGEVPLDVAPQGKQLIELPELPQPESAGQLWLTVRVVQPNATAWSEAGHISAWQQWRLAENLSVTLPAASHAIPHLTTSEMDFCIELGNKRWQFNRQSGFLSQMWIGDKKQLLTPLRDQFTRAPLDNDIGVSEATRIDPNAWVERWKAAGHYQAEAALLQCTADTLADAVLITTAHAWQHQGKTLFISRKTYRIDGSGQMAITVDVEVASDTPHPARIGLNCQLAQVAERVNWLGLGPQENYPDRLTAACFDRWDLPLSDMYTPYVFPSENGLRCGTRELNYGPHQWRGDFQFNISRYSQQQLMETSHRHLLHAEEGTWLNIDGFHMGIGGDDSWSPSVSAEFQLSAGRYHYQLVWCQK
Sequence of Genome polyprotein (P29990 2492-3391 limits assumed): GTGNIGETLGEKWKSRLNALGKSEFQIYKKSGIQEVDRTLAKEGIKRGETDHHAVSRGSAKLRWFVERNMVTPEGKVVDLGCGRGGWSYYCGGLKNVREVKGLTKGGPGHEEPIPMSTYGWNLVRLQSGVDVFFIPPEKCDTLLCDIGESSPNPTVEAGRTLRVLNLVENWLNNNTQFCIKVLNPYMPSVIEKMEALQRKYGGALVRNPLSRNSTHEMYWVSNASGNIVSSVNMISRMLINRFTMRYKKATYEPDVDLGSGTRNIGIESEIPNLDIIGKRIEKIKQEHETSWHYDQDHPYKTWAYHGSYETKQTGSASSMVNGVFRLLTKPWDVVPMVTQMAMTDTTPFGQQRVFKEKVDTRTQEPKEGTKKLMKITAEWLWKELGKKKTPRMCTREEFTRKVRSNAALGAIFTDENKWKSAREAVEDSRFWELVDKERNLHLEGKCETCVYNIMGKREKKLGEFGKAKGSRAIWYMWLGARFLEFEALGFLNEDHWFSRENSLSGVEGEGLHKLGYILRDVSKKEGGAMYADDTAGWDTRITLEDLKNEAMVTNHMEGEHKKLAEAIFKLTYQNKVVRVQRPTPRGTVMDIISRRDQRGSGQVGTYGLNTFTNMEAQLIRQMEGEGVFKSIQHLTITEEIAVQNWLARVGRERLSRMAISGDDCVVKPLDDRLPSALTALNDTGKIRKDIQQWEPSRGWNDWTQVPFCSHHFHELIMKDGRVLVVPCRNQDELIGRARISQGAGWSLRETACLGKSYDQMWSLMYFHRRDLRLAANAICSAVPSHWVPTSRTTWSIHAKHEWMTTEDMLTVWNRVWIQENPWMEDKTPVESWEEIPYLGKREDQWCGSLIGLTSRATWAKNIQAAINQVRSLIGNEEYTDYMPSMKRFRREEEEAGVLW

## O=C(O)c1ccc2c(c1)C(=O)/C(=C\c1ccco1)C2=O
[1]
  EC50: 32.1 µM (active)
[2]
  EC50: > 300 µM (not active)
ORF 73
  AC50: 133 µM (active)
[3]
  IC50: 89.2 µM (active)
Genome polyprotein
  IC50: 12.3 µM (active)

## CC(C)Cn1c(=O)c(C(=O)Nc2ccncc2)c(O)c2ccccc21
[4]
  EC50: 10.9 µM (active)
[5]
  CC50: 12.4 µM (active)
[6]
  EC50: > 120 µM (not active)
Streptococcus
  EC50: 7.31 µM (active)
[7]
  CC50: 16.5 µM (active)
[8]
  EC50: 5.54 µM (active)
[9]
  AC50: 6.7 µM (active)
cells
  IC50: 16.9 µM (active)
[10]
  CC50: 19.1 µM (active)
[11]
  EC50: > 120 µM (not active)

## CCn1c(SCc2nc(O)c3c(C)c(C(=O)O)sc3n2)nc2ccccc21
ORF 73
  AC50: 32.2 µM (active)

## CC1=C/C(=N\NC(=S)Nc2cccnc2)CC(C)(C)C1
[12]
  AC50: 11 µM (active)
[13]
  IC50: 9.46 µM (active)
[14]
  IC50: > 32 µM
Beta-galactosidase
  EC50: > 31.5 µM (inactive)

## CC(C(=O)Nc1ccccc1)n1sc2ccccc2c1=O (configuration not stated)
Hexokinase
  IC50: 8.14 µM (active)

## COc1ccc(Cl)cc1NC(=O)COC(=O)c1ccc(NC(N)=O)cc1
[15]
  IC50: > 100 µM (inactive)
[16]
  IC50: > 100 µM (inactive)

## O=C(Nc1nnc(-c2ccco2)o1)c1ccc([N+](=O)[O-])s1
[5]
  CC50: 17.4 µM (active)
[7]
  CC50: 11.6 µM (active)
cells
  IC50: 9.81 µM (active)
[10]
  CC50: > 20 µM (active)

## O=C(COc1ccc(C=NNC(=O)c2ccc(O)cc2)cc1)Nc1ccc([N+](=O)[O-])cc1
[15]
  IC50: 5.8 µM (active)
[16]
  IC50: > 100 µM (inactive)

## CCCn1c(NC(=O)c2ccccc2)nc2ccccc21
[5]
  CC50: 35.9 µM (active)
Streptococcus
  EC50: > 150 µM (not active)
[7]
  CC50: > 20 µM (active)
[8]
  EC50: 2.56 µM (active)
cells
  IC50: 1.75 µM (active)
[10]
  CC50: > 20 µM (active)
H9c2
  IC50: > 79 µM (inactive)
Streptokinase A
  EC50: > 150 µM (not active)
